Laboratory results taken from US20120022159A1, “AMPHIPHILIC STAR-LIKE OR SCORPION-LIKE MACROMOLECULES, VARIOUS COMPOSITIONS AND USES THEREOF” (priority 2004, published 2012).

Tested on: human umbilical vein endothelial cells (HUVECs)
Test: Uptake of dye-loaded AScMs in HUVEC monitored by cellular accumulation of fluorescent dyes
Format: cell-based
Experimental: Methods Amphiphilic scorpion-like macromolecules (AScMs) are block copolymers that form micelles at concentrations above their CMC (5×10^−7 M). The uptake of AScMs was investigated in human umbilical vein endothelial cells (HUVECs) by monitoring cellular accumulation of the fluorescent dyes (R110, R123 and LY, respectively). Briefly, fluorescent dyes were added to AScMs solutions (0.0001-1 mM) and incubated at 37° C. for at least 6 hours prior to cell incubation. After determination of R110, R123 and LY partitioning into the AScMs micelles, dye-loaded AScMs were incubated with HUVEC. Uptake of dye-loaded AScMs was investigated as a function of time (15, 30, 60, 90 and 120 minutes) and AScMs concentration (0.0001-1 mM). Furthermore, intracellular distribution and localization of dye-loaded AScMs in HUVEC was investigated using confocal microscope. […] The decreased accumulation of R110, R123 and LY in HUVEC monolayers was inversely correlated with the extent of their partitioning into AScMs. Uptake of R110, R123 and LY-loaded micelles was also time-dependent. […] Furthermore, confocal microscopy studies confirmed increased fluorescence activity in the cells with increase in the incubation time. […] Thus, AScMs can be used to localize therapeutic compounds into cells, for example, to achieve a sustained therapeutic effect.

[1] = AScMs at concentrations above the CMC
[2] = AScMs at concentrations below the CMC

Row | SMILES | dye accumulation in HUVEC monolayers [1] | dye accumulation in HUVEC monolayers [2]
1 | NNC(=O)NN1C(=O)c2cc(S(=O)(=O)[O-])cc3c(N)c(S(=O)(=O)[O-])cc(c23)C1=O.[Li+].[Li+] [LY] | significant decrease | significant increase
2 | Nc1ccc2c(-c3ccccc3C(=O)O)c3ccc(N)cc3[o+]c2c1.[Cl-] [R110] | significant decrease | significant increase
3 | COC(=O)c1ccccc1-c1c2ccc(N)cc2[o+]c2cc(N)ccc12 [R123] | significant decrease | significant increase
